Results reported in US20250177425A1, “SAIKOSAPONIN C AS COMPOSITION FOR TREATING OR PREVENTING AGE-RELATED VASCULAR DISEASES INCLUDING ARTERIOSCLEROSIS” (AGINGTARGET, INC., priority 2022, published 2025).

Columns and labels:
[1] = tested on: THP-1 cells differentiated into macrophages; test: Macrophage foam cell formation by ox-LDL (Oil Red O staining); assay type: cell-based, human; conditions: PMA-differentiated THP-1 macrophages; 5 μM and 20 μM pretreatment 2 hours, ox-LDL 100 μg/ml 24 hours
Method: The differentiated macrophages were pretreated with Saikosaponin C at concentrations of 5 μM and 20 μM for 2 hours, and then treated with oxidized LDL (ox-LDL) (100 μg/ml), a foam cell inducer, for 24 hours. Then, the formation of foam cells from macrophages was observed. The foam cell formation was evaluated by microscopic analysis after Oil Red O staining of adsorbed lipid molecules and absorbance analysis using a microplate reader.
The nucleus was stained with hematoxylin dye for 1 minute.

[2] = tested on: p21, p27, and p16 in HPAEC; test: Western blotting of G1 phase growth arrest-inducing proteins; assay type: cell-based, human; conditions: 5 μM and 20 μM pretreatment 2 hours, 33 mM high glucose 36 hours, dose-dependent
Method: (§1) Similar to Experimental Example 1, a high-fat diet evaluation system at the cellular level was established.
(§2) Specifically, two types of vascular endothelial cells, namely, HUVEC and HPAEC cells, were pretreated with Saikosaponin C at concentrations of 5 μM and 20 μM for 2 hours, then treated with high glucose (33 mM) for 48 hours, and then immobilized with cold 70% ethanol. The DNA of the immobilized vascular endothelial cells was stained with PI (propidium iodide, 50 μg/ml) solution and the cell cycle was analyzed using a flow cytometer. In addition, the expression of cell cycle regulatory proteins such as p21, p27, and p16 was analyzed after treatment with high glucose (33 mM) for 36 hours.
(§3) Since cellular senescence is closely related to the arrest in the G1 phase of the cell cycle, the cell cycle was evaluated using flow cytometry (FIG. 4A and FIG. 4B). In addition, the expression of p21, p27, and p16 proteins, which are G1 phase growth arrest-inducing proteins, was measured through Western blotting (FIG. 4C, FIG. 4D).

[3] = tested on: p21, p27, and p16 in HUVEC; test: as above; assay type: cell-based, human; conditions: 5 μM and 20 μM pretreatment 2 hours, 33 mM high glucose 36 hours, dose-dependent
Method: as §1, §2, §3

[4] = tested on: ICAM-1 and VCAM-1 in HUVEC; test: Western blotting of adhesion proteins after TNF-α; assay type: cell-based, human; conditions: 5 μM and 20 μM pretreatment 2 hours, TNF-α 20 ng/ml 8 hours
Method: (§4) Specifically, two types of vascular endothelial cells, namely, HUVEC (human umbilical vein endothelial cells) and HCAEC (human coronary artery endothelial cells), were pretreated with Saikosaponin C at concentrations of 5 μM and 20 μM for 2 hours, and then treated with TNF-α (20 ng/ml) for 8 hours. Then, adhesion of monocyte-vascular endothelial cell and expression of cell adhesion molecules (ICAM-1, VCAM-1) of vascular endothelial cells were observed. […] The adhesion of monocyte-endothelial cells was evaluated by imaging analysis using a confocal microscope and fluorescence analysis using a microplate reader, and expression of adhesion proteins (ICAM-1 and VCAM-1) was evaluated by Western blotting.
(§5) Calcein AM fluorescence was analyzed using a confocal microscope and a microplate reader, and the expression of cell adhesion proteins (ICAM-1, VCAM-1) were evaluated through Western blotting.
(§6) FIGS. 9A and 9B show the results of analysis of monocyte-endothelial cell adhesion in two types of vascular endothelial cells (HUVEC, HCAEC) using a confocal microscope, and FIGS. 9C and 9D show the results of analysis of Calcein AM fluorescence (at an excitation wavelength of 488 nm, and at an emission wavelength of 517 nm) in the same experiment using a microplate reader. […]

[5] = tested on: ICAM-1 and VCAM-1 in HCAEC; test: Western blotting of adhesion proteins after TNF-α; assay type: cell-based, human; conditions: 5 μM and 20 μM pretreatment 2 hours, TNF-α 20 ng/ml 8 hours
Method: as §4, §5, §6

NLRP3 inflammasome = NLRP3 inflammasome (Homo sapiens, UniProt Q96P20); test: NLRP3 inflammasome activity: caspase-1 cleavage (Western blotting); conditions: PMA-differentiated THP-1 macrophages; 20 μM pretreatment 2 hours, MSU 200 μg/ml 6 hours
[6] = tested on: PAI-1, ICAM-1, and VCAM-1 in HPAEC; test: Western blotting of vascular senescence marker proteins; assay type: cell-based, human; conditions: 5 μM and 20 μM pretreatment 2 hours, 33 mM high glucose 48 hours, dose-dependent
Method: as §1
(§7) Specifically, two types of vascular endothelial cells, namely, HUVEC and HPAEC cells, were pretreated with Saikosaponin C at concentrations of 5 μM and 20 μM for 2 hours, and then treated with high glucose at a concentration of 33 mM for 72 hours (for SA-β-gal staining) or 48 hours (for vascular senescence marker protein analysis). Then, the degree of cellular senescence was measured through SA-β-gal staining and measured as the ratio of the total cells to cells stained in blue (SA-β-gal positive). In addition, the expression of vascular senescence marker proteins such as PAI-1, ICAM-1, and VCAM-1 was analyzed.
(§8) Specifically, the senescence of vascular endothelial cells was evaluated by SA-β-gal staining to measure the activity of β-galactosidase, which is an enzyme present in the lysosome, an organelle within the cell (FIG. 3C and FIG. 3D) and this was represented as a graph (FIG. 3A and FIG. 3B). In addition, FIGS. 3E and 3F show the results of Western blotting to determine the expression of vascular senescence marker proteins such as PAI-1, ICAM-1, and VCAM-1 in two types of vascular endothelial cells (HUVEC, HPAEC).

[7] = tested on: PAI-1, ICAM-1, and VCAM-1 in HUVEC; test: as above; assay type: cell-based, human; conditions: 5 μM and 20 μM pretreatment 2 hours, 33 mM high glucose 48 hours, dose-dependent
Method: as §1, §7, §8

HUVEC = test: Trypan blue staining, viable cell count under high glucose; assay type: cell-based, human; conditions: 5 μM and 20 μM pretreatment 2 hours, 33 mM high glucose 1 week, dose-dependent
Method: (§9) Similar to Experimental Example 1, a high-fat diet evaluation system at the cell level was established.
(§10) Specifically, two types of vascular endothelial cells, namely, HUVEC and HPAEC cells, were pretreated with Saikosaponin C at concentrations of 5 μM and 20 μM for 2 hours, and then treated with high glucose at a concentration of 33 mM for 1 week. The number of viable cells was then analyzed by Trypan blue staining. The number of viable cells was based on the number of cells in the control group (none) set to “100”.

HPAEC = test: as above; assay type: cell-based, human; conditions: 5 μM and 20 μM pretreatment 2 hours, 33 mM high glucose 1 week, dose-dependent
Method: as §9, §10

Chain of NLRP3 inflammasome (Q96P20 whole entry): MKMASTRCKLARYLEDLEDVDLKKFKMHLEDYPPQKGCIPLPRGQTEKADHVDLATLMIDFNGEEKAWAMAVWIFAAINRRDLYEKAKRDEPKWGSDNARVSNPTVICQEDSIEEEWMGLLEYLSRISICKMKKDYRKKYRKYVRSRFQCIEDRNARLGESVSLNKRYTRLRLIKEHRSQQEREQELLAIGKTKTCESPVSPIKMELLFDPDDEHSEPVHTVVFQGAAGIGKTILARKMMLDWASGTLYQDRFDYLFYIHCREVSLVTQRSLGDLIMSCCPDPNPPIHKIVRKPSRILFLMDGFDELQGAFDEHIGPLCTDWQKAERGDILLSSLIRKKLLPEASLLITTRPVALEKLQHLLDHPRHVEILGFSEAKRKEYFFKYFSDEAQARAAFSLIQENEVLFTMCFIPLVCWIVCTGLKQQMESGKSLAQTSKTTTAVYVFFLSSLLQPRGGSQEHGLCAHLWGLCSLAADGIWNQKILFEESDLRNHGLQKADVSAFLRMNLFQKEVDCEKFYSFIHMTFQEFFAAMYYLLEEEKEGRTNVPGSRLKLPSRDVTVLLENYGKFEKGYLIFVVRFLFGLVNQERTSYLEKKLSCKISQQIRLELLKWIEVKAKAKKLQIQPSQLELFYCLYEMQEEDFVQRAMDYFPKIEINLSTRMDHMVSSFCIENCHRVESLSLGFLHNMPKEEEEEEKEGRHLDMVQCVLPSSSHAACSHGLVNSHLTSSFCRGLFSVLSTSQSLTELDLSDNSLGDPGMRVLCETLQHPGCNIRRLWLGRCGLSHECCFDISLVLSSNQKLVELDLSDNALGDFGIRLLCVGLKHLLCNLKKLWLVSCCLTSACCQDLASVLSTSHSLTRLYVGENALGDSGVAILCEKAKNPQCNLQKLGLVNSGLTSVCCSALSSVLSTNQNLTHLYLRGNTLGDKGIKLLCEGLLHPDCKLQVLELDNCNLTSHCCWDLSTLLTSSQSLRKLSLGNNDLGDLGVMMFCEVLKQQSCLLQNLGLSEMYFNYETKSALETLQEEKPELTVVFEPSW

**Q.** With `CC1O[C@@H](O[C@@H]2C(CO[C@@H]3OC(CO)[C@@H](O)C(O)C3O)O[C@@H](O[C@H]3CC[C@]4(C)[C@H]5C=C[C@]67OC[C@@]8(CCC(C)(C)C[C@H]86)[C@@H](O)C[C@@]7(C)[C@]5(C)CC[C@H]4C3(C)C)C(O)C2O)C(O)C(O)[C@H]1O` (stereo partly shown) [Saikosaponin C] as the compound, how does the “foam cell formation by lipid deposition (Oil Red O)” value [1] read?
**A.** suppressed

**Q.** And the “high glucose-induced increase in the expression of p21, p27, and p16 proteins” value [2]?
**A.** significantly abolished

**Q.** What about the “high glucose-induced increase in the expression of p21, p27, and p16 proteins” value [3] of the same compound?
**A.** significantly abolished

**Q.** What about the “expression of adhesion proteins (ICAM-1, VCAM-1) of vascular endothelial cells” value [4] of the same compound?
**A.** inhibited

**Q.** And the “expression of adhesion proteins (ICAM-1, VCAM-1) of vascular endothelial cells” value [5]?
**A.** inhibited

**Q.** And the caspase-1 cleavage (NLRP3 inflammasome)?
**A.** inhibited

**Q.** And the “expression of vascular senescence marker proteins PAI-1, ICAM-1, and VCAM-1” value [6]?
**A.** reduced

**Q.** What about the “expression of vascular senescence marker proteins PAI-1, ICAM-1, and VCAM-1” value [7] of the same compound?
**A.** reduced

**Q.** What about the “high glucose-induced cell growth inhibition (number of viable cells, Trypan blue)” value (HUVEC) of the same compound?
**A.** significantly alleviated

**Q.** And the “high glucose-induced cell growth inhibition (number of viable cells, Trypan blue)” value (HPAEC)?
**A.** significantly alleviated
